# Reference: publication PMC6148764, “Consensus design for improved thermostability of lipoxygenase from Anabaena sp. PCC 7120” (BMC Biotechnology, 2018)
# How the values were obtained:
# Experiment in all cases: hydroperoxide formation at […] nm, spectrophotometer, initial rate
# Format in all cases: biochemical
# Details in all cases: Tris-HCl pH 9.0, 30 °C
# Ana-rLOX [1] = biological target: T1, Ana-rLOX (Nostoc sp. PCC 7120 = FACHB-418, UniProt Q8YK97, G578A)
# T1 construct: gene all8020
# Ana-rLOX [2] = biological target: T2, Ana-rLOX (Nostoc sp. PCC 7120 = FACHB-418, UniProt Q8YK97, S755T)
# T2 construct: gene all8020
# Ana-rLOX [3] = biological target: T3, Ana-rLOX (Nostoc sp. PCC 7120 = FACHB-418, UniProt Q8YK97, N448D)
# T3 construct: gene all8020
# Ana-rLOX [4] = biological target: T4, Ana-rLOX (Nostoc sp. PCC 7120 = FACHB-418, UniProt Q8YK97, N448D/G578Q)
# T4 construct: gene all8020
# Ana-rLOX [5] = biological target: T5, Ana-rLOX (Nostoc sp. PCC 7120 = FACHB-418, UniProt Q8YK97)
# T5 construct: gene all8020
# T5 sequence (Q8YK97 319-773 limits assumed): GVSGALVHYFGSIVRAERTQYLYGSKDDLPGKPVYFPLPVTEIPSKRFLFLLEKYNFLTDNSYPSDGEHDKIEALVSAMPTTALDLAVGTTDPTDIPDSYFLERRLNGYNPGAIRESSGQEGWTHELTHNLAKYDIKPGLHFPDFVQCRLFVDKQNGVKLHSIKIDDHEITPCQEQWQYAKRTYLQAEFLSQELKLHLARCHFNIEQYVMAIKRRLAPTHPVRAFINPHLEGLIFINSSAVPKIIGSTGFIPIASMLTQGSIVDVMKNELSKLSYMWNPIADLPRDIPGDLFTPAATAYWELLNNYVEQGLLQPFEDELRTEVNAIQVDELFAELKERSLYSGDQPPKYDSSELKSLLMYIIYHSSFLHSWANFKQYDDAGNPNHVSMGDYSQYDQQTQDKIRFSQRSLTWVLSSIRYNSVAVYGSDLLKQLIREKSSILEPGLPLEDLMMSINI
# Ana-rLOX [6] = biological target: T6, Ana-rLOX (Nostoc sp. PCC 7120 = FACHB-418, UniProt Q8YK97, N448D/S755Y)
# T6 construct: gene all8020
# T6 sequence (Q8YK97 319-773 N448D/S755Y): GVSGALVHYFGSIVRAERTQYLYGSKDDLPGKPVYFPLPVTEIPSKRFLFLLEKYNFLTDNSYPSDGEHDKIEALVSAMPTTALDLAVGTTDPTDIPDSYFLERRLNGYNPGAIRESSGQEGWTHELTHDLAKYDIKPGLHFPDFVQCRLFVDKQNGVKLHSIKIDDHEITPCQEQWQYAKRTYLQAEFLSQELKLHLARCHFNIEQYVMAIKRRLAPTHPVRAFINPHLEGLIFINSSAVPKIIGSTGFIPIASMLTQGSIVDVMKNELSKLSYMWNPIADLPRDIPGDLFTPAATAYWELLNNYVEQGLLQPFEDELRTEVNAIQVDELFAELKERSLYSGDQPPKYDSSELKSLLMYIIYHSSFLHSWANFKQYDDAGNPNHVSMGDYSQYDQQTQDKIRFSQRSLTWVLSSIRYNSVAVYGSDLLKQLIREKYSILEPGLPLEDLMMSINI
# T4 sequence (Q8YK97 319-773 N448D/G578Q): as the sequence (Q8YK97 319-773 N448D/S755Y) above, with G260Q, Y437S counted along it
# T3 sequence (Q8YK97 319-773 N448D): as the sequence (Q8YK97 319-773 N448D/S755Y) above, with Y437S counted along it
# T2 sequence (Q8YK97 319-773 S755T): as the sequence (Q8YK97 319-773 N448D/S755Y) above, with D130N, Y437T counted along it
# T1 sequence (Q8YK97 319-773 G578A): as the sequence (Q8YK97 319-773 N448D/S755Y) above, with D130N, G260A, Y437S counted along it
smiles,measurement,setting,value
CCCCC/C=C\C/C=C\CCCCCCCC(=O)O [linoleic acid],Km,Ana-rLOX [1],34 ± 2.3 µM
same,Km,Ana-rLOX [2],56 ± 4.7 µM
same,Km,Ana-rLOX [3],30 ± 2.6 µM
same,Km,Ana-rLOX [4],13 ± 1 µM
same,Km,Ana-rLOX [5],56 ± 4 µM
same,Km,Ana-rLOX [6],15 ± 1.1 µM
